Results from patent publication US20240341340A1, “EYE DAMAGE PREVENTION COMPOSITION CONTAINING DENDROPANAX MORBIFERA LEV. EXTRACT” (KOREA GINSENG CORP., priority 2021, published 2024).

How the values were obtained:
Type in all cases: in vivo, mouse
[1] = system: BALB/c mice, white LED light-induced loss of optic nerve cells; assay: Outer nuclear layer thickness in light-induced macular degeneration animal model; conditions: 6.5 mg/kg/day oral for 7 days
Source text: When drusen accumulates in the macular area due to dry macular degeneration, the macular area is photooxidized and causes damage to surrounding tissues and optic nerve cells, thereby resulting in a decrease of visual acuity, and in severe cases, geographic atrophy occurs, a condition in which optic nerve cells are lost and retinal apoptosis is induced. In order to determine whether a Dendropanax morbifera extract has the effect of improving damage or deformation of photoreceptor cells in an animal model where optic nerve cell damage was caused by excessive irradiation of a light source including blue light and loss of optic nerve cells similar to dry macular degeneration, the changes in the thickness of outer nuclear layer (ONL) of the retina were measured. Specifically, 6-week-old male BALB/c mice (Orient Bio Inc.) were acclimatized for one week and then subjected to dark adaptation in a dark place without light for 14 hours from the evening before white LED exposure containing blue light, and then, their pupils were dilated with 1% tropicamide eye drop the next morning. […] The slide sections were stained with hematoxylin & eosin (H&E) and observed under an optical microscope, and damage or deformation of photoreceptor cells was evaluated by measuring changes in the thickness of the outer nuclear layer of retinal tissue

[2] = system: BALB/c mice, white LED light-induced loss of optic nerve cells; assay: Electroretinogram (wave a and wave b) in light-induced macular degeneration animal model; conditions: 6.5 mg/kg/day oral
Source text: An electroretinogram (ERG) is a degree of electric potential of the retinal optic nerve representing an electrical signal generated by a response of the optic nerve to light, and is used as an index to determine the presence/absence of retinal damage or disease. The electroretinogram consists of wave a and wave b, in which the wave a is generated by photoreceptors, and the wave b is generated by depolarization of bipolar cells in the inner nuclear layer of the retina by light stimulation. In order to confirm whether a Dendropanax morbifera extract has the effect of improving the decrease of activity of visual cells in an animal model in which optic nerve cell damage was caused by the irradiation of an excessive light source and loss of optic nerve cells similar to dry macular degeneration was induced, the electroretinogram was measured. […] An appropriate amount of 1% methylcellulose was added to the eyeballs while maintaining body temperature under general anesthesia, and the gold wire loops recording electrode was grounded to the cornea, and the reference electrode was placed on the cheek area, and the ground electrode was grounded to the tail, and then the electroretinogram was measured using Retiport (Roland Consult, Germany). […]

[3] = system: BALB/c mice, MNU-induced loss of optic nerve cells; assay: Outer nuclear layer thickness in N-methyl-N-nitrosourea (MNU) animal model; conditions: 6.5 and 13 mg/kg/day oral for 7 days
Experimental: In order to confirm the effect of the Dendropanax morbifera extract on improving damage or deformation of photoreceptor cells, N-methyl-N-nitrosourea (MNU) toxic to photoreceptor cells was administered, and the changes in thickness of the outer nuclear layer (ONL) of the retina were measured in an animal model where loss of optic nerve cells similar to dry macular degeneration was induced. Specifically, 6-week-old male BALB/c mice (Orient Bio Inc.) were acclimatized for one week, and N-methyl-N-nitrosourea (MNU) (Sigma, USA) was prepared to a concentration of 1% in a 0.05% acetic acid solution and was administered intraperitoneally to mice at a concentration of 1%, 60 mg/kg per individual, in which only the same amount of 0.05% acetic acid was administered intraperitoneally in the negative control. The test drug was orally administered once daily for 7 days from the same day after administration of N-methyl-N-nitrosourea. […] The slide sections were stained with hematoxylin & eosin (H&E) and observed under an optical microscope, and damage or deformation of photoreceptor cells was evaluated by measuring changes in the thickness of the outer nuclear layer of retinal tissue.

O=C(/C=C/c1ccc(O)c(O)c1)O[C@@H]1C[C@@](O)(C(=O)O)C[C@@H](O)[C@@H]1O [neochlorogenic acid, Neochlorogenic acid]
not statistically significant: increase of thickness of the outer nuclear layer (positive control) [1] | improvement of retinal nerve conduction (positive control) [2] | increase of thickness of the outer nuclear layer (positive control) [3]
